Test results reported in US20130209543A1, “ENHANCED TREATMENT REGIMENS USING MTOR INHIBITORS” (Intellikine LLC, priority 2011, published 2013).

System: TORC1 (p4EBP1 and pS6) and TORC2 (pPRAS40)
Assay: Human skin immunohistochemistry assay (skin biopsies, pathway inhibition)
Assay type: in vivo
Settings: 6 mg QD, read-out: PD (% inhibition, H score) Skin: 4EBP1/PRAS40
Experimental: Human Skin Immunohistochemistry Assay.
Skin tissue was fixed in 10% neutral-buffered formalin solution for 24 hours and then processed and embedded in paraffin block. Sections (4 μm) were cut and mounted onto microscopic slides. Sections were incubated with primary antibodies (p4EBP1, pS6, or pRAS40) overnight and developed using a chromogenic substrate.
Pharmacodynamic (PD) endpoints were evaluated in surrogate (peripheral blood cells [PBCs], skin) and tumor tissues for the phosphorylation of TORC1-dependent markers (4EBP1/S6), and TORC2-dependent markers (AKT/PRAS40). 50 patients were treated in 3 intermittent dosing regimens; 21 in 6 cohorts ranging 7-40 mg QW, 20 in 5 cohorts ranging 6-20 mg QD×3d QW, and 9 in 3 cohorts ranging 7-13 mg QD×5d QW. […] The MTD for intermittent dosing was not reached. All adverse events (AEs) reported were reversible. The most common (≧20%, n=35) AEs considered possibly related to compound A reported in all 3 dosing regimens included nausea (51%), hyperglycemia (37%), mucosal inflammation (29%), rash (23%), asthenia (23%), vomiting (26%), and diarrhea (20%). The majority of AEs considered possibly related to compound A in any regimen were Grade 1 or 2. The only reported Grade≧3 AE (≧5%) possibly related to compound A in 3 regimens was lymphopenia (6%). Tables 4-9 show summaries of observed adverse events for various treatment regimens of the invention.

Which inhibition at 6 mg does the source give for CC(C)n1nc(-c2ccc3oc(N)nc3c2)c2c(N)ncnc21 [compound A] here?
The inhibition at 6 mg was 60%.
